Results: patent US20150366962A1 (priority 2014, published 2015)

Columns and labels:
[1] = system: Mouse bone marrow-derived dendritic cells (mBMDCs); test: Costimulatory-molecule (CD40, CD86) expression in mouse BMDCs; type: cell-based, C57BL/6 mice
Method: (§1) (A) Upregulation of antigen uptake by 1Z105. BMDCs prepared from C57BL/6 mice were incubated with 10 μM 1Z105 or MPLA overnight. Antigen, Alexa Fluor 488-conjugated ovalbumin (OVA-488), was added to the culture for the last 30 min of incubation. The cells were washed and stained for CD11c. OVA-associated dendritic cells in the CD11c^hi population were evaluated by flow cytometry. Cells incubated at 4° C. served as a negative control. (B and C) Enhancement of expression of costimulatory molecules by 1Z105.WT (B) or Tlr4^−/− (C) BMDCs were incubated with 1Z105 (10 or 2 μM) or MPLA (0.04 μg/ml) overnight, and expression of CD40 and CD86 was assessed by flow cytometric assay. (D) 1Z105 promotes antigen cross-presentation. Wild-type BMDCs were incubated with 1Z105 (2 μM) overnight, and OVA (10 μg/ml) was added to the culture for the last 4 h of incubation. […] OT-1 T-cell proliferation was monitored by flow-cytometric assay. […] Cytokine release of IL-1β, IL-6, IL-8, IL-12p70, and TNF-α was determined by Luminex bead assay. […]
Mouse bone marrow-derived dendritic cells (mBMDCs) were prepared from wild type or Tlr4^−/− C57BL/6 mice. mBMDCs (10^5 cells per well) were plated in 96-well plates in 200 μl of complete RPMI 1640. […] The cells were stained for CD11c, and OVA uptake and expression of CD40 and CD86 in the CD11chi-gated population was determined by flow cytometry.

[2] = system: CD8+ OT-1 T cells cultured with BMDCs; test: OT-1 CD8 T cell proliferation assay (antigen cross-presentation); type: cell-based, C57BL/6 mice; details: BMDCs with 1Z105 2 μM or MPLA 1 μg/ml overnight, OVA 10 μg/ml, 3 days
Method: (A) Upregulation of antigen uptake by 1Z105. BMDCs prepared from C57BL/6 mice were incubated with 10 μM 1Z105 or MPLA overnight. Antigen, Alexa Fluor 488-conjugated ovalbumin (OVA-488), was added to the culture for the last 30 min of incubation. The cells were washed and stained for CD11c. OVA-associated dendritic cells in the CD11c^hi population were evaluated by flow cytometry. Cells incubated at 4° C. served as a negative control. (B and C) Enhancement of expression of costimulatory molecules by 1Z105.WT (B) or Tlr4^−/− (C) BMDCs were incubated with 1Z105 (10 or 2 μM) or MPLA (0.04 μg/ml) overnight, and expression of CD40 and CD86 was assessed by flow cytometric assay. (D) 1Z105 promotes antigen cross-presentation. Wild-type BMDCs were incubated with 1Z105 (2 μM) overnight, and OVA (10 μg/ml) was added to the culture for the last 4 h of incubation. The cells were washed and cultured with CFSE-labeled CD8^+ OT1Tcells for 3 days. OT-1 T-cell proliferation was monitored by flow-cytometric assay. […] Cytokine release of IL-1β, IL-6, IL-8, IL-12p70, and TNF-α was determined by Luminex bead assay. […]
Naive CD8^+ T cells from OT-1 C57BL/6 mice were isolated using an EasySep Mouse CD8^+ T Cell Isolation Kit and stained with carboxyfluorescein succinimidyl ester (CFSE) (10 μM). […] OT-1 T cell proliferation was monitored by CFSE dilution using a flow cytometer.

[3] = system: human monocyte-derived DCs; test: Cytokine induction of human monocyte-derived dendritic cells (Luminex); type: cell-based; details: 10 μM, 18 h
Method: as §1, with “cross-presentation.” for “cross-presentation. Wild-type BMDCs were incubated with 1Z105 (2 μM) overnight, and OVA (10 μg/ml) was added to the culture for the last 4 h of incubation.”
Human primary dendritic cells (DCs) were generated. […] The supernatants were stored at −20° C. for later quantification of released cytokines. Quantification of IL-1β, IL-6, IL-8, IL-12p70, and tumor necrosis factor alpha (TNF-α) released in supernatants was performed using the Milliplex Multiplex Assays (Luminex; Millipore, Billerica, Mass.) according to the manufacturer's instructions. Data were analyzed using the Milliplex Analyst software (Millipore).

[4] = system: B/Florida/04/2006 (Yamagata lineage); design: species or system BALB/c mice; details: mouse, in vivo

Cn1c2ccccc2c2nc(SCC(=O)NC3CCCCC3)n(-c3ccccc3)c(=O)c21 [Compound 1Z105]
surface expression of CD40 and CD86 ([1]; TLR4-deficient (Tlr4-/-) BMDCs): not observed | surface expression of CD40 and CD86 ([1]; WT BMDCs, 1Z105 10 or 2 μM, MPLA 0.04 μg/ml, overnight): increased the surface expression of CD40 and CD86 at levels similar to that of MPLA | proliferation of OT-1 cells (antigen cross-presentation) [2]: induced proliferation of OT-1 cells | proinflammatory cytokine release (IL-1β, IL-6, IL-8, IL-12p70, TNF-α) [3]: activated human monocyte-derived DCs, resulting in proinflammatory cytokine release

CCCCCCCCC=CCCCCCCCC(=O)OCC(COP(=O)(O)OCCNC(=O)c1ccc(Cn2c(=O)[nH]c3c(N)nc(OCCOC)nc32)cc1)OC(=O)CCCCCCCC=CCCCCCCCC (centres unmarked) [Compound 1V270]
mortality compared to the no-adjuvant group [4]: significantly reduced
